Source: patent publication US20020010210A1, “PHARMACEUTICAL PREPARATION AND METHOD FOR TREATING CANCER” (priority 1997, published 2002)
Structures can show the parent of a compound that is named as a salt. Numbered stars: 1 amine (or outer) side, 2 acyl side, 3 side chain; on linkers, the order of the positions; unused ones are H or OH. Bridge positions count the residues as written; N and C are the ends. Square brackets hold non-standard residues; d marks the D form. Peptide text beside a SMILES is read from it. I, II: the chains in the order shown. Actinocin(9to1) = Cc1c2oc3c(C)ccc(C(=O)[*:1])c3nc-2c(C(=O)[*:2])c(N)c1=O; NMeV = CN[C@H](C(=O)O)C(C)C; Sar = CNCC(=O)O

Assays:
[1] = tested on: spontaneous breast cancer rat cells (SST-2); test: Lung metastasis of SST-2 in SHR rats, ascorbic acid derivative combined with known anticancer agent (Example 4); type: in vivo
Method: 1×100,000 spontaneous breast cancer rat cells (SST-2) were subcutaneously implanted into the back of a rat (SHR rat) (5 rats per group) suffering from spontaneous hypertension. After 35 days, the rats were sacrificed, and the number of colonies formed were measured to examine the degree of metastasis of SST-2 to the lung.
The ascorbic acid derivatives used were L-ascorbic acid-2-phosphate-6-palmitate, L-ascorbic acid-6-benzoate (reference compound) and magnesium L-ascorbic acid-2-phosphate.
Each of the groups treated with an ascorbic acid derivative was subjected to a test of administering the ascorbic acid derivative alone and to a test of administering the ascorbic acid derivative in combination with a known anticancer agent as shown in Table 4. Furthermore, tests of administering the anticancer agents alone were conducted. Over the period of from 7 days prior to implantation to 34 days after the implantation, the ascorbic acid derivative was injected through a vein in the tail region at a dose of 1 mg/1 day/rat. Each of the known anticancer agents was perorally administered in a minimum dose by reference to the concentration for a single use case described in the publication, Tyakuhin Yoran (Medical Product Handbook), 4th Edition, pp. 1474-1509, Yakugyo Jiho-Sha (1989), and the number of colonies formed after metastasis was compared.

[2] = tested on: spontaneous breast cancer rat cells (SST-2); test: as above; type: in vivo; remark: listed apart in the source
[3] = ascorbic acid derivative 1 mg/1 day/rat tail vein, day -7 to day 34, known anticancer agent perorally in minimum dose, colonies after 35 days

## CS(=O)(=O)OCCCCOS(C)(=O)=O [bulsfan]
[1]; rat, in vivo
  Cancer metastasis inhibitory effect of combination with L-Ascorbic Acid-2-Phosphate-6-Palmitate versus each agent alone: +
[2]; rat, in vivo
  Cancer metastasis inhibitory effect of combination with L-Ascorbic Acid-2-Phosphate-6-Benzoate versus each agent alone: ±
  Cancer metastasis inhibitory effect of combination with L-Ascorbic Acid-6-Palmitate versus each agent alone: −

## CC[C@]1(O)C[C@@H]2CN(CCc3c([nH]c4ccccc34)[C@@](C(=O)OC)(c3cc4c(cc3OC)N(C)[C@H]3[C@@](O)(C(=O)OC)[C@H](OC(C)=O)[C@]5(CC)C=CCN6CC[C@]43[C@@H]65)C2)C1 [vinblastine sulfate]
[1]; [3]
  Cancer metastasis inhibitory effect of combination with L-Ascorbic Acid-2-Phosphate-6-Palmitate versus each agent alone: +
[2]; [3]
  Cancer metastasis inhibitory effect of combination with L-Ascorbic Acid-2-Phosphate-6-Benzoate versus each agent alone: +
  Cancer metastasis inhibitory effect of combination with L-Ascorbic Acid-6-Palmitate versus each agent alone: −

## CC[C@]1(O)C[C@@H]2CN(CCc3c([nH]c4ccccc34)[C@@](C(=O)OC)(c3cc4c(cc3OC)N(C)[C@H]3[C@@](O)(C(N)=O)[C@H](O)[C@]5(CC)C=CCN6CC[C@]43[C@@H]65)C2)C1 [vindesine sulfate]
[1]; [3]
  Cancer metastasis inhibitory effect of combination with L-Ascorbic Acid-2-Phosphate-6-Palmitate versus each agent alone: +
[2]; [3]
  Cancer metastasis inhibitory effect of combination with L-Ascorbic Acid-2-Phosphate-6-Benzoate versus each agent alone: +
  Cancer metastasis inhibitory effect of combination with L-Ascorbic Acid-6-Palmitate versus each agent alone: −

## O=c1[nH]c(=O)n(C2CCCO2)cc1F (stereo not drawn) [tegaful]
[1]; rat, in vivo
  Cancer metastasis inhibitory effect of combination with L-Ascorbic Acid-2-Phosphate-6-Palmitate versus each agent alone: +
[2]; rat, in vivo
  Cancer metastasis inhibitory effect of combination with L-Ascorbic Acid-2-Phosphate-6-Benzoate versus each agent alone: +
  Cancer metastasis inhibitory effect of combination with L-Ascorbic Acid-6-Palmitate versus each agent alone: −

## COc1cccc2c1C(=O)c1c(O)c3c(c(O)c1C2=O)C[C@@](O)(C(=O)CO)C[C@@H]3O[C@H]1C[C@H](N)[C@H](O)[C@H](C)O1 [doxorubicin hydrochloride]
[1]; [3]
  Cancer metastasis inhibitory effect of combination with L-Ascorbic Acid-2-Phosphate-6-Palmitate versus each agent alone: +
[2]; [3]
  Cancer metastasis inhibitory effect of combination with L-Ascorbic Acid-2-Phosphate-6-Benzoate versus each agent alone: +
  Cancer metastasis inhibitory effect of combination with L-Ascorbic Acid-6-Palmitate versus each agent alone: −

## PLEOMYCIN sulfate
[1]; rat, in vivo
  Cancer metastasis inhibitory effect of combination with L-Ascorbic Acid-2-Phosphate-6-Palmitate versus each agent alone: +
[2]; rat, in vivo
  Cancer metastasis inhibitory effect of combination with L-Ascorbic Acid-2-Phosphate-6-Benzoate versus each agent alone: +
  Cancer metastasis inhibitory effect of combination with L-Ascorbic Acid-6-Palmitate versus each agent alone: −

## CN(Cc1cnc2nc(N)nc(N)c2n1)c1ccc(C(=O)N[C@@H](CCC(=O)O)C(=O)O)cc1 [methotrexate]
[1]; [3]
  Cancer metastasis inhibitory effect of combination with L-Ascorbic Acid-2-Phosphate-6-Palmitate versus each agent alone: +
[2]; [3]
  Cancer metastasis inhibitory effect of combination with L-Ascorbic Acid-2-Phosphate-6-Benzoate versus each agent alone: +
  Cancer metastasis inhibitory effect of combination with L-Ascorbic Acid-6-Palmitate versus each agent alone: −

## CIZOFERAN
[1]; [3]
  Cancer metastasis inhibitory effect of combination with L-Ascorbic Acid-2-Phosphate-6-Palmitate versus each agent alone: +
[2]; [3]
  Cancer metastasis inhibitory effect of combination with L-Ascorbic Acid-2-Phosphate-6-Benzoate versus each agent alone: +
  Cancer metastasis inhibitory effect of combination with L-Ascorbic Acid-6-Palmitate versus each agent alone: −

## Cc1c2oc3c(C)ccc(C(=O)N[C@@H]4C(=O)N[C@H](C(C)C)C(=O)N5CCC[C@H]5C(=O)N(C)CC(=O)N(C)[C@@H](C(C)C)C(=O)O[C@@H]4C)c3nc-2c(C(=O)N[C@@H]2C(=O)N[C@H](C(C)C)C(=O)N3CCC[C@H]3C(=O)N(C)CC(=O)N(C)[C@@H](C(C)C)C(=O)O[C@@H]2C)c(N)c1=O [actinomycin (D)] (I: T[dV]P[Sar][NMeV] / II: T[dV]P[Sar][NMeV]; ester I:1-I:C, II:1-II:C; linker I:N-II:N via Actinocin(9to1))
[1]; rat, in vivo
  Cancer metastasis inhibitory effect of combination with L-Ascorbic Acid-2-Phosphate-6-Palmitate versus each agent alone: +
[2]; rat, in vivo
  Cancer metastasis inhibitory effect of combination with L-Ascorbic Acid-2-Phosphate-6-Benzoate versus each agent alone: +
  Cancer metastasis inhibitory effect of combination with L-Ascorbic Acid-6-Palmitate versus each agent alone: −

## CN(C)/N=N/c1[nH]cnc1C(N)=O [decarbazine]
[1]; [3]
  Cancer metastasis inhibitory effect of combination with L-Ascorbic Acid-2-Phosphate-6-Palmitate versus each agent alone: +
[2]; [3]
  Cancer metastasis inhibitory effect of combination with L-Ascorbic Acid-2-Phosphate-6-Benzoate versus each agent alone: +
  Cancer metastasis inhibitory effect of combination with L-Ascorbic Acid-6-Palmitate versus each agent alone: −

## CC[C@]1(O)C[C@H]2CN(CCc3c([nH]c4ccccc34)[C@@](C(=O)OC)(c3cc4c(cc3OC)N(C=O)[C@H]3[C@@](O)(C(=O)OC)[C@H](OC(C)=O)[C@]5(CC)C=CCN6CC[C@]43[C@@H]65)C2)C1 [vincristine sulfate]
[1]; [3]
  Cancer metastasis inhibitory effect of combination with L-Ascorbic Acid-2-Phosphate-6-Palmitate versus each agent alone: +
[2]; [3]
  Cancer metastasis inhibitory effect of combination with L-Ascorbic Acid-2-Phosphate-6-Benzoate versus each agent alone: +
  Cancer metastasis inhibitory effect of combination with L-Ascorbic Acid-6-Palmitate versus each agent alone: −

## Nc1ccn([C@@H]2O[C@H](CO)[C@@H](O)[C@@H]2O)c(=O)n1 [cytarabine]
[1]; [3]
  Cancer metastasis inhibitory effect of combination with L-Ascorbic Acid-2-Phosphate-6-Palmitate versus each agent alone: +
[2]; [3]
  Cancer metastasis inhibitory effect of combination with L-Ascorbic Acid-2-Phosphate-6-Benzoate versus each agent alone: +
  Cancer metastasis inhibitory effect of combination with L-Ascorbic Acid-6-Palmitate versus each agent alone: −

## neocarzinostatin
[1]; [3]
  Cancer metastasis inhibitory effect of combination with L-Ascorbic Acid-2-Phosphate-6-Palmitate versus each agent alone: +
[2]; [3]
  Cancer metastasis inhibitory effect of combination with L-Ascorbic Acid-2-Phosphate-6-Benzoate versus each agent alone: +
  Cancer metastasis inhibitory effect of combination with L-Ascorbic Acid-6-Palmitate versus each agent alone: −

## COC1(O[C@H]2CC[C@H]3[C@@H]4CC[C@H]5C[C@@H]6S[C@@H]6C[C@]5(C)[C@H]4CC[C@]23C)CCCC1 [mebitiostan]
[1]; [3]
  Cancer metastasis inhibitory effect of combination with L-Ascorbic Acid-2-Phosphate-6-Palmitate versus each agent alone: +
[2]; [3]
  Cancer metastasis inhibitory effect of combination with L-Ascorbic Acid-2-Phosphate-6-Benzoate versus each agent alone: +
  Cancer metastasis inhibitory effect of combination with L-Ascorbic Acid-6-Palmitate versus each agent alone: −

## NC(Cc1ccc(N(CCCl)CCCl)cc1)C(=O)O (stereo not drawn) [merphalan]
[1]; [3]
  Cancer metastasis inhibitory effect of combination with L-Ascorbic Acid-2-Phosphate-6-Palmitate versus each agent alone: +
[2]; [3]
  Cancer metastasis inhibitory effect of combination with L-Ascorbic Acid-2-Phosphate-6-Benzoate versus each agent alone: +
  Cancer metastasis inhibitory effect of combination with L-Ascorbic Acid-6-Palmitate versus each agent alone: −

## C[C@]12CC[C@@H]3c4ccc(OC(=O)N(CCCl)CCCl)cc4CC[C@H]3[C@@H]1CC[C@@H]2OP(=O)(O)O [Estracyt (R)]
[1]; [3]
  Cancer metastasis inhibitory effect of combination with L-Ascorbic Acid-2-Phosphate-6-Palmitate versus each agent alone: +
[2]; [3]
  Cancer metastasis inhibitory effect of combination with L-Ascorbic Acid-2-Phosphate-6-Benzoate versus each agent alone: +
  Cancer metastasis inhibitory effect of combination with L-Ascorbic Acid-6-Palmitate versus each agent alone: −

## peptidoglycan
[1]; [3]
  Cancer metastasis inhibitory effect of combination with L-Ascorbic Acid-2-Phosphate-6-Palmitate versus each agent alone: +
[2]; [3]
  Cancer metastasis inhibitory effect of combination with L-Ascorbic Acid-2-Phosphate-6-Benzoate versus each agent alone: +
  Cancer metastasis inhibitory effect of combination with L-Ascorbic Acid-6-Palmitate versus each agent alone: −

## CO[C@@]12[C@H](COC(N)=O)C3=C(C(=O)C(C)=C(N)C3=O)N1C[C@@H]1N[C@@H]12 [mitomycin C]
[1]; rat, in vivo
  Cancer metastasis inhibitory effect of combination with L-Ascorbic Acid-2-Phosphate-6-Palmitate versus each agent alone: +
[2]; rat, in vivo
  Cancer metastasis inhibitory effect of combination with L-Ascorbic Acid-2-Phosphate-6-Benzoate versus each agent alone: +
  Cancer metastasis inhibitory effect of combination with L-Ascorbic Acid-6-Palmitate versus each agent alone: −

## O[C@@H]([C@H](O)[C@H](O)CBr)[C@H](O)CBr [MITOPURNITOL]
[1]; [3]
  Cancer metastasis inhibitory effect of combination with L-Ascorbic Acid-2-Phosphate-6-Palmitate versus each agent alone: +
[2]; [3]
  Cancer metastasis inhibitory effect of combination with L-Ascorbic Acid-2-Phosphate-6-Benzoate versus each agent alone: +
  Cancer metastasis inhibitory effect of combination with L-Ascorbic Acid-6-Palmitate versus each agent alone: −

## COC(COC(N)=O)C1=C(N2CC2)C(=O)C(C)=C(N2CC2)C1=O (stereo not drawn) [CARBOCON]
[1]; [3]
  Cancer metastasis inhibitory effect of combination with L-Ascorbic Acid-2-Phosphate-6-Palmitate versus each agent alone: +
[2]; [3]
  Cancer metastasis inhibitory effect of combination with L-Ascorbic Acid-2-Phosphate-6-Benzoate versus each agent alone: +
  Cancer metastasis inhibitory effect of combination with L-Ascorbic Acid-6-Palmitate versus each agent alone: −

## O=c1[nH]c(=O)n([C@H]2C[C@H](O)[C@@H](CO)O2)cc1F [floxuridine]
[1]; [3]
  Cancer metastasis inhibitory effect of combination with L-Ascorbic Acid-2-Phosphate-6-Palmitate versus each agent alone: +
[2]; [3]
  Cancer metastasis inhibitory effect of combination with L-Ascorbic Acid-2-Phosphate-6-Benzoate versus each agent alone: +
  Cancer metastasis inhibitory effect of combination with L-Ascorbic Acid-6-Palmitate versus each agent alone: −

## L-asparginase
[1]; rat, in vivo
  Cancer metastasis inhibitory effect of combination with L-Ascorbic Acid-2-Phosphate-6-Palmitate versus each agent alone: +
[2]; rat, in vivo
  Cancer metastasis inhibitory effect of combination with L-Ascorbic Acid-2-Phosphate-6-Benzoate versus each agent alone: +
  Cancer metastasis inhibitory effect of combination with L-Ascorbic Acid-6-Palmitate versus each agent alone: −

## O=P1(NCCCl)OCCCN1CCCl (stereo not drawn) [ifosfamide]
[1]; rat, in vivo
  Cancer metastasis inhibitory effect of combination with L-Ascorbic Acid-2-Phosphate-6-Palmitate versus each agent alone: +
[2]; rat, in vivo
  Cancer metastasis inhibitory effect of combination with L-Ascorbic Acid-2-Phosphate-6-Benzoate versus each agent alone: +
  Cancer metastasis inhibitory effect of combination with L-Ascorbic Acid-6-Palmitate versus each agent alone: −

## CO[C@@H]1[C@H](O)C[C@@H](O[C@@H]2C[C@H](Oc3cc4cc5c(c(O)c4c(O)c3C)C(=O)[C@@H](O[C@H]3C[C@@H](O[C@H]4C[C@@H](O[C@H]6C[C@](C)(O)[C@@H](OC(C)=O)[C@H](C)O6)[C@H](O)[C@@H](C)O4)[C@H](O)[C@@H](C)O3)[C@H]([C@H](OC)C(=O)[C@@H](O)[C@@H](C)O)C5)O[C@H](C)[C@@H]2OC(C)=O)O[C@@H]1C [chromomycin A3]
[1]; [3]
  Cancer metastasis inhibitory effect of combination with L-Ascorbic Acid-2-Phosphate-6-Palmitate versus each agent alone: +
[2]; [3]
  Cancer metastasis inhibitory effect of combination with L-Ascorbic Acid-2-Phosphate-6-Benzoate versus each agent alone: +
  Cancer metastasis inhibitory effect of combination with L-Ascorbic Acid-6-Palmitate versus each agent alone: −

## N.N.[Cl][Pt][Cl] [cisplatin]
[1]; [3]
  Cancer metastasis inhibitory effect of combination with L-Ascorbic Acid-2-Phosphate-6-Palmitate versus each agent alone: +
[2]; [3]
  Cancer metastasis inhibitory effect of combination with L-Ascorbic Acid-2-Phosphate-6-Benzoate versus each agent alone: +
  Cancer metastasis inhibitory effect of combination with L-Ascorbic Acid-6-Palmitate versus each agent alone: −

## S=P(N1CC1)(N1CC1)N1CC1 [TIOTEBA]
[1]; [3]
  Cancer metastasis inhibitory effect of combination with L-Ascorbic Acid-2-Phosphate-6-Palmitate versus each agent alone: +
[2]; [3]
  Cancer metastasis inhibitory effect of combination with L-Ascorbic Acid-2-Phosphate-6-Benzoate versus each agent alone: +
  Cancer metastasis inhibitory effect of combination with L-Ascorbic Acid-6-Palmitate versus each agent alone: −

## CC[C@@]1(O)C[C@H](O[C@H]2C[C@H](N(C)C)[C@H](O[C@H]3C[C@H](O)[C@H](O[C@H]4CCC(=O)[C@H](C)O4)[C@H](C)O3)[C@H](C)O2)c2c(cc3c(c2O)C(=O)c2c(O)cccc2C3=O)[C@H]1C(=O)OC [aclarubicin hydrochloride]
[1]; rat, in vivo
  Cancer metastasis inhibitory effect of combination with L-Ascorbic Acid-2-Phosphate-6-Palmitate versus each agent alone: +
[2]; rat, in vivo
  Cancer metastasis inhibitory effect of combination with L-Ascorbic Acid-2-Phosphate-6-Benzoate versus each agent alone: +
  Cancer metastasis inhibitory effect of combination with L-Ascorbic Acid-6-Palmitate versus each agent alone: −
